Test results reported in patent US20240101552A1, “CARBONYL HETEROCYCLIC COMPOUND AND APPLICATION THEREOF” (SHANGHAI PHARMACEUTICALS HOLDING CO., LTD., priority 2020, published 2024).
“Also recorded” adds a separate entry of the source. Blank lines part the entries; values can stand above or below the compound they belong to.

Columns and labels:
[1] = tested on: TNBS-induced colitis in mice; assay: Alleviating effect on TNBS-induced enteritis (colitis) in mice, study (I); assay type: in vivo, Balb/c mice; conditions: vs Vehicle group, Mesalamine PO 100 mpk QD
Description: Preparation method of L56: an appropriate amount of L56 compound was weighed into a brown sample vial, added with a certain volume of solvent 95% (20% HP-β-CD)+5% (10% sodium benzoate), the mixture was vortexed for 1 minute, and dissolved ultrasonically. The compound was prepared once a day.
Preparation method of L30: an appropriate amount of L30 compound was weighed into a brown sample vial, added with a certain volume of solvent 95% (20% HP-β-CD)+5% (10% sodium benzoate), the mixture was vortexed for 1 minute, and dissolved ultrasonically. The compound was prepared once a day.
Preparation method of Mesa (Mesalamine): an appropriate amount of Mesalamine (Selleck) was weighed into a brown sample vial, added with a certain volume of solvent 0.5% CMC-Na, the mixture was vortexed for 1 minute, and dissolved ultrasonically. The compound was prepared once a day.
(§1) Fifty-six female Balb/c mice, weighing about 18 g and 8-10 weeks old, were randomly divided into seven groups, including six model groups and one Sham control group. The administration was started on Day 1 and ended on Day 7, with the compounds prepared once a day, as detailed in Table 1 for route and frequency of administration, and Table 2 for compound preparation and volume of administration.
(§2) Balb/c mice weighing about 18-20 g were anesthetized with 0.25 mL of 1.25% Avertin on Day 0. The mice in the model group were perfused rectally with 150 μL of 1% TNBS solution (ethanol with a final concentration of 50%). The mice in the Sham control group were perfused rectally with 50% ethanol on Day 0.
(§3) The mouse colon was photographed, measured for the length, and weighed after the contents were removed. The colon of each mouse was then cut longitudinally at ½, rolled in a uniform direction by Swiss-roll method and fixed in neutral paraformaldehyde.
(§4) The DAI scoring consisted of 3 parts, taking the method of mixed scoring of weight change, stool and blood in stool, and the specific DAI scoring criteria were shown in Table 3. Throughout the experiment, the DAI scoring of all mice was done by the same person to ensure the scale consistency of the scoring.
The histopathological scoring was performed by a professional pathologist on the clinical pathology platform in a double-blind manner.
The experimental data were statistically analyzed by ANOVA method, positive drug Mesalamine (PO, 100 mpk, QD) group, L56 (PO, 50 mpk, BID) group, L30 (PO, 50 mpk, BID) group, *p<0.05, **p<0.01, ***p<0.005, ****p<0.0001

[2] = tested on: TNBS-induced colitis in mice; assay: Alleviating effect on TNBS-induced colitis in mice, study (II); assay type: in vivo, Balb/c mice; conditions: for colon weight (FIG. 18B) / weight-to-length ratio of colon (FIG. 18C): L compounds PO 50 mpk BID, Mesalazine PO 100 mpk QD
Description: as §1, with “Sixty” for “Fifty-six”, “twelve” for “seven”, “eleven” for “six”
as §2, §3, §4
The experimental data were statistically analyzed by ANOVA method, and data of other groups and the Vehicle (PO, QD) group were analyzed by Dunnett's test to compare data of multiple groups, *p<0.05, **p<0.01, ***p<0.005, ****p<0.0001

[3] = Solubility remark in the LANCL2 binding table (footnote a); assay type: physicochemical; parameters: key: ª: “a” indicated poor solubility
LANCL2 = LANCL2 (Homo sapiens (Human), UniProt Q9NS86); assay: SPR (BIACORE S200) kinetic determination of LANCL2-small molecule interactions; assay type: binding; conditions: for Kd: immobilized LANCL2, 1:1 binding model, pH 6.5, 25° C.; for Rmax (RU): maximum binding force
Description: 1.1 Reagent Materials • Ligand: LANCL2 • Running buffer: 20 mM MES, 150 mM NaCl, 0.05% P20, pH 6.5, 1% DMSO
Injection conditions for small molecule compounds: a flow rate of 30 μL/min, a binding time of 60 s, a dissociation time of 300 s.
Running buffer: 20 mM MES, 150 mM NaCl, 0.05% P20, pH 6.5, 1% DMSO.
Sample chamber temperature: 25° C.; analysis temperature: 25° C.
Kinetic determination of LANCL2-small molecule interactions was performed. The kinetic parameters of small molecules BT-11 and L-1 to 60 (analytes) binding to LANCL2 (ligand) were determined using BIACORE S200. Data were generated in triplicate in a dose-dependent manner (5-8 titration points) and analyzed to determine binding models (Langmuir, conformational shifts, etc.), real-time association and dissociation constants, and equilibrium dissociation constants. SPR technology allows the validation of specific LANCL2-phytochemical interactions as well as an increased insight into the gold standard of binding mechanisms and rates. Experiments were performed on carboxymethyl polydextrose (CM5) sensor chips by amine-coupled covalent attachment of LANCL2. Data were analyzed with BIACORE S200T200 evaluation software (version 1), so as to determine affinity binding constants (KD) using a 1:1 binding model.
An optical technique for detecting molecular interactions, SPR, was used to measure the binding affinity between LANCL2 and a ligand thereof (compound to be tested). Purified recombinant LANCL2 protein was immobilized on a BIACORE sensor chip and small molecules were injected onto the protein surface using an equipment of microfluidic system. The change in total mass on the chip surface, corresponding to a small binding to the protein, was measured. […] The equilibrium dissociation constant (Kd) was often used to describe the affinity between a ligand and a protein, such as affinity degree of a ligand binding to a specific protein. Ligand-protein affinity was affected by non-covalent intermolecular interactions between two molecules, such as hydrogen bonding, electrostatic interactions, hydrophobic bonds and van der Waals forces. The steady-state affinity (Kd) for each interaction could be measured by plotting equilibrium binding levels against compound concentrations.

[4] = vs Vehicle group, PO, 50 mpk, BID

Sequence of LANCL2 (Q9NS86 whole entry, species assumed): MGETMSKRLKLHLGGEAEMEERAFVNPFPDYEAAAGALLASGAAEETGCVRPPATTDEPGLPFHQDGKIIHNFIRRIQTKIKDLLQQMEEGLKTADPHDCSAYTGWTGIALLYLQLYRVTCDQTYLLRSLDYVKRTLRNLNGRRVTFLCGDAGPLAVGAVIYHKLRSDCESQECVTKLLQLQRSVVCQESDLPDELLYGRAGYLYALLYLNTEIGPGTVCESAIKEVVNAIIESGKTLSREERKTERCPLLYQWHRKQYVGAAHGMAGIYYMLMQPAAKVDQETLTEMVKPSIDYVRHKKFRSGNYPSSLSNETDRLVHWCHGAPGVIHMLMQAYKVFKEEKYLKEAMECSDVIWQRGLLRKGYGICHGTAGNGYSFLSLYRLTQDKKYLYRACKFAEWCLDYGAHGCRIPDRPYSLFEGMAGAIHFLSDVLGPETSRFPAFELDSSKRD

Compound: Nc1ccc(O)c(C(=O)O)c1 [Mesalamine]
colon tissue pathological scores (HE staining) ([1]; L56 PO 50 mpk BID): lower colon tissue pathological scores with a statistically significant difference
DAI scores (FIG. 13B) ([1]; L compounds PO 50 mpk BID): significantly lower
colon length (FIG. 14B) ([1]; L compounds PO 50 mpk BID): significantly more colon length
colon weight (FIG. 14C) ([1]; L compounds PO 50 mpk BID): less colon weight
weight loss of the mice (FIG. 13A) ([1]; L compounds PO 50 mpk BID): significantly slowed down
weight-to-length ratio of colon (FIG. 14A) ([1]; L compounds PO 50 mpk BID): significantly lower
colon weight (FIG. 18B) ([2]; vs Vehicle group): less colon weight
weight-to-length ratio of colon (FIG. 18C) ([2]; vs Vehicle group): significantly lower

solubility (footnote a) [3]: ª
Compound: O=C(c1cccc(-c2cn3ccccc3n2)c1)N1CCN(C(=O)c2cccc(-c3cn4ccccc4n3)c2)CC1 [Embodiment L-36, Piperazine-1,4-diylbis((3-(imidazol[1,2-a]pyridin-2-yl)phenyl)methanone)]

Compound: O=C(NC1C2CN(C(=O)c3cccc(-c4nc5ccccc5[nH]4)n3)CC21)c1cccc(-c2nc3ccccc3[nH]2)n1 [Embodiment L-11, N-(3-(6-(1H-benzo[d]imidazol-2-yl)picolinoyl)-3-azabicyclo[3.1.0]hexan-6-yl)-6-(1H-benzo[d]imidazol-2-yl)pyridinecarboxamide]
binding activity compared with positive reference compound BT-11 (LANCL2): better binding activities than the positive reference compound BT-11
Kd (LANCL2): 3.67 µM
Rmax (RU) (LANCL2): 4.2 RU
alleviation of TNBS-induced colitis / inflammation (conclusion) ([2]; PO, 50 mpk, BID): could significantly alleviate the occurrence of inflammation in mice with TNBS-induced colitis; also recorded: could effectively alleviate TNBS-induced colitis in mice
alleviation of symptoms of diarrhea and blood in stool ([2]; PO, 50 mpk, BID): could effectively alleviate the symptoms of diarrhea and blood in stool in TNBS model mice
alleviation of weight loss caused by TNBS-induced colitis (body weight changes and DAI scores combined) ([2]; PO, 50 mpk, BID): could effectively alleviate the weight loss in mice caused by TNBS-induced colitis
colon weight (FIG. 18B) ([2]; vs Vehicle group): less colon weight
weight-to-length ratio of colon (FIG. 18C) ([2]; vs Vehicle group): significantly lower
DAI scores (FIG. 16B) [2, 4]: significantly lower
blood in stool score (FIG. 17B) [2, 4]: significantly slowed down
colon length (FIG. 18A) [2, 4]: significantly more colon length
diarrhea score (FIG. 17A) [2, 4]: significantly slowed down
weight loss of the mice (FIG. 16A) [2, 4]: significantly slowed down

Kd (LANCL2): 4.46 µM
Rmax (RU) (LANCL2): 3.6 RU
Compound: O=C(c1cccc(-c2nc3ccccc3[nH]2)n1)N1CCN(C(=O)c2cccc(-c3nc4ccccc4[nH]3)n2)CC1 [BT-11, reference compound]
weight loss of the mice (FIG. 16A) [2, 4]: not significantly slowed down

Compound: O=C(NC1C2CN(C(=O)c3cccc(-c4nc5ccccc5[nH]4)n3)CC21)c1ccnc(Nc2ccccc2)n1 [Embodiment L-23, N-(3-(6-(1H-benzo[d]imidazol-2-yl)picolinoyl)-3-azabicyclo[3.1.0]hexan-6-yl)-2-(phenylamino)pyrimidine-4-carboxamide]
Kd (LANCL2): 10.3 µM
Rmax (RU) (LANCL2): 7.5 RU

Kd (LANCL2): 14.8 µM
Rmax (RU) (LANCL2): 32.5 RU
Compound: Cc1ccc(C(=O)N2CCN(C(=O)c3cccc(-c4nc5ccccc5[nH]4)n3)CC2)cc1NC1=CC(=O)c2ccccc2C1=O [Embodiment L-116, 2-((5-(4-(6-(1H-benzo[d]imidazol-2-yl)picolinoyl)piperazine-1-carbonyl)-2-methylphenyl)amino)naphthalene-1,4-dione]

Kd (LANCL2): 13.2 µM
Rmax (RU) (LANCL2): 12 RU
Compound: O=C(NC1CCN(C(=O)c2cccc(-c3cn4ccccc4n3)c2)CC1)c1ccnc(Nc2ccccc2)n1 [Embodiment L-42, N-(1-(3-(imidazo[1,2-a]pyridin-2-yl)benzoyl)piperidin-4-yl)-2-(phenylamino)pyrimidine-4-formamide]

Kd (LANCL2): 29.3 µM
Rmax (RU) (LANCL2): 5.7 RU
Compound: O=C(c1cccc(-c2nc3ccccc3[nH]2)n1)N1CCC2(CC1)CCN(C(=O)c1ccnc(Nc3ccccc3)n1)C2 [Embodiment L-62, (8-(6-(1H-benzo[d]imidazol-2-yl)picolinoyl)-2,8-diazaspiro[4.5]dec-2-yl)(2-(phenylamino)pyrimidin-4-yl)methanone]

Kd (LANCL2): 58.8 µM
Rmax (RU) (LANCL2): 11 RU
Compound: Cc1cn(-c2cccc(C(=O)N3CCC4(CCN(C(=O)c5cccc(-c6cn7ccccc7n6)c5)CC4)CC3)c2)cn1 [Embodiment L-92, (9-(3-(imidazo[1,2-a]pyridin-2-yl)benzoyl)-3,9-diazaspiro[5.5]undecan-3-yl)(3-(4-methyl-1H-imidazol-1-yl)phenyl)methanone]

Kd (LANCL2): 38.3 µM
Rmax (RU) (LANCL2): 1.5 RU
Compound: O=C(Nc1ccccc1NC(=O)c1ccnc(N2CCOCC2)n1)c1ccnc(N2CCOCC2)n1 [Embodiment L-13, N,N′-(1,2-phenylene)bis(2-morpholinopyrimidine-4-carboxamide)]

Kd (LANCL2): 43.3 µM
Rmax (RU) (LANCL2): 5.3 RU
Compound: O=C(NC1CCN(C(=O)c2cccc(-c3nc4ccccc4[nH]3)n2)CC1)C1CCCC(c2nc3ccccc3[nH]2)C1 [Embodiment L-20]

Kd (LANCL2): 31.8 µM
Rmax (RU) (LANCL2): 7.2 RU
Compound: O=C(c1cccc(-c2nc3ccccc3[nH]2)n1)N1CCC2(CCN(C(=O)c3nccc(Nc4ccccc4)n3)C2)C1 [Embodiment L-66, (7-(6-(1H-benzo[d]imidazol-2-yl)picolinoyl)-2,7-diazaspiro[4.4]non-2-yl)(4-(phenylamino)pyrimidin-2-yl)methanone]
